Read-outs that look alike come from different tables or passages of the source.
Assay: Measuring pKas of couplers in TRITON X-100 media
Format: physicochemical
Experimental: Procedure for Measuring pKas of Couplers in TRITONX-100 Media:
A solution of the coupler that was ca. 5E-3 M was made with 5.0 mL of dimethyl sulfoxide solvent. A 0.50-mL aliquot of the solution was added to 3.18 g of Triton X- 100 surfactant in a 50-mL volumetric flask. Then ca. 25 mL of ca. 40-deg C. distilled water was added while swirling vigorously. The solution was then cooled to ambient temperature and diluted to 50 mL with water. Various phosphate buffer solutions as potassium salts were prepared with pHs ranging from 3.73 to 12 with ionic strength of 0.75. Ionic strength computations were done using the three pKas for phosphoric acid. A 2.0-mL aliquot of the stock coupler solution was mixed with 2.0 mL of chosen buffer in a 5-dram vial. […] A wavelength between 310 and 350 nm was typically chosen. The pH of the mixture was then measured with a CORNING Model 125 meter. A baseline reference blank spectrum was run with TRITON X-100 (surfactant) and pH 7 buffer. The data of corrected absorbances (differences from the blank spectrum) and pHs were used to compute by least-squares the pKa and the other two unknowns of high and low limiting densities. The pKa measurements are made with an experimental uncertainty within ±0.10, which depends on sources of material, the number of experimental points, number of replicates, and the like.

[1] = Table 5, TRITON X-100 media, read-out: pKa
[2] = Table 4, TRITON X-100 media, read-out: pKa
[3] = Table 3, TRITON X-100 media, read-out: pKa
[4] = Table 7, TRITON X-100 media, read-out: pKa
[5] = Table 8, TRITON X-100 media, read-out: pKa

CCCCCCCCCCCCCCCCNS(=O)(=O)c1ccc(Cl)c(NC(=O)C(OC(=O)N(CCCCCCCCCCCC)c2ccc(/C=C(\C#N)c3nc4ccccc4o3)c(C)c2)C(=O)c2ccc(OC)cc2)c1 (stereo not drawn) [CY-12, reference compound]
pKa (standard measurement, read-out: pKa at the coupling site): 8.7

CCCCCCCCCCCCNS(=O)(=O)c1ccc(NC(=O)C(OC(=O)N(c2ccc(/C=C(\C#N)c3nc4cc(C(C)(C)C)ccc4o3)c(C)c2)C2CCCC2)C(=O)c2ccc(OC)cc2)c(Cl)c1 (stereo not drawn) [CY-8, reference compound]
pKa [1]: 9.5

CCC(C)(C)c1cc(C(C)(C)CC)c2oc(/C(C#N)=C/c3ccc(N(C(=O)OC(C(=O)Nc4ccc([N+](=O)[O-])cc4Cl)C(=O)c4ccccc4)C4CCCC4)cc3C)nc2c1 (stereo not drawn) [Coupler Y-5]
pKa [1]: 7.4

CCCCCCCCCCCCS(=O)(=O)c1ccc(NC(=O)C(OC(=O)N(c2ccc(/C=C(\C#N)c3nc4cc(C(C)(C)C)ccc4o3)c(C)c2)C2CCCC2)C(=O)c2ccccc2)c(Cl)c1 (stereo not drawn) [Coupler Y-3]
pKa [2]: 7.8

CCC(C)(C)c1cc(C(C)(C)CC)c2oc(/C(C#N)=C/c3ccc(N(C(=O)OC(C(=O)Nc4cc(CS(=O)(=O)c5ccc(O)cc5)ccc4Cl)C(=O)c4ccc(OC)cc4)C4CCCC4)cc3C)nc2c1 (stereo not drawn) [CY-5, reference compound]
pKa [3]: 10

CCCCCCCCCCCCNS(=O)(=O)c1ccc(NC(=O)C(OC(=O)N(c2ccc(/C=C(\C#N)c3nc4ccccc4o3)c(C)c2)C2CCCC2)C(=O)c2ccccc2)c(Cl)c1 (stereo not drawn) [Coupler Y-9]
pKa [4]: 8

CCCCCCCCCCCCS(=O)(=O)c1ccc(NC(=O)C(OC(=O)N(c2ccc(/C=C(\C#N)c3nc4ccccc4o3)c(C)c2)C2CCCC2)C(=O)c2ccc(Cl)cc2)c(Cl)c1 (stereo not drawn) [Coupler Y-10]
pKa [5]: 7.2

CCCCCCCCCCCCCCCCNS(=O)(=O)c1ccc(Cl)c(NC(=O)C(OC(=O)N(CCCC)c2ccc(/C=C(\C#N)c3nc4ccccc4o3)c(C)c2)C(=O)c2ccc(OC)cc2)c1 (stereo not drawn) [CY-13, reference compound]
pKa [4]: 8.8

CCCCCCCCCCCCS(=O)(=O)c1ccc(NC(=O)C(OC(=O)N(CC)c2ccc(/C=C(\C#N)c3nc4cc(C(C)(C)CC(C)(C)C)ccc4o3)c(C)c2)C(=O)c2ccc(Cl)cc2)c(Cl)c1 (stereo not drawn) [Coupler Y-11]
pKa [5]: 7

CCCCCCCCCCCCOC(=O)c1ccc(Cl)c(NC(=O)C(OC(=O)N(C)c2ccc(/C=C(\C#N)c3nc4cc(C(C)(C)C)ccc4o3)c(C)c2)C(=O)c2ccc(OC)cc2)c1 (stereo not drawn) [CY-7, reference compound]
pKa [3]: 9.1

CCCCCCCCCCCCS(=O)(=O)c1ccc(NC(=O)C(OC(=O)N(C)c2ccc(/C=C(\C#N)c3nc4cc(C(C)(C)C)ccc4o3)c(C)c2)C(=O)c2ccccc2)c(Cl)c1 (stereo not drawn) [Coupler Y-1]
pKa [3]: 7.4

CCC(C)(C)c1cc(C(C)(C)CC)c2oc(/C(C#N)=C/c3ccc(N(C(=O)OC(C(=O)Nc4cc(CS(=O)(=O)c5ccccc5)ccc4Cl)C(=O)c4ccc(OC)cc4)C4CCCC4)cc3C)nc2c1 (stereo not drawn) [CY-4, reference compound]
pKa [3]: 10.6

COc1ccc(C(=O)C(OC(=O)N(c2ccc(/C=C(\C#N)c3nc4cc(C(C)(C)C)ccc4o3)c(C)c2)C2CCCC2)C(=O)Nc2ccc([N+](=O)[O-])cc2Cl)cc1 (stereo not drawn) [Coupler Y-4]
pKa [2]: 8.2

CCCCCCCCCCCCCCCCNS(=O)(=O)c1ccc(Cl)c(NC(=O)C(OC(=O)N(C)c2ccc(/C=C(\C#N)c3nc4cc(C(C)(C)C)ccc4o3)c(C)c2)C(=O)c2ccc(OC)cc2)c1 (stereo not drawn) [Coupler Y-2]
pKa [3]: 8.5

CCCCCCCCCCCCOC(=O)c1ccc(Cl)c(NC(=O)C(C(=O)c2ccc(OC)cc2)N2C(=O)C(OCC)N(Cc3ccccc3)C2=O)c1 (stereo not drawn) [CY-1, reference compound]
pKa [3]: 5.1

From US6569612B1, “Photographic element containing a high-dye-yield coupler for producing a yellow hue” (Eastman Kodak Company, priority 2001, dated 2003)
